Measured values: patent US20050043369A1, “Bactericidal antimicrobial methods and compositions for use in treating gram positive infections” (Protez Pharmaceuticals Inc., priority 2000, published 2005)
Where two headings read alike, the source gives them in different places. Blank lines part the entries; values can stand above or below the compound they belong to.

What was measured:
S. aureus SA 29213 = assay: 55Fe transport assay (intracellular iron accumulation); format: cell-based, Staphylococcus aureus; conditions: compound at 2 μg/ml; S. aureus SA 29213
Procedure: Next, investigated was whether INF 401 affects intracellular iron accumulation. An ^55Fe transport assay (modified from Sebulsky, 2000) was used to examine the ability of INF 401 to transport iron inside the cell. Briefly, exponentially growing cells were diluted to OD600 0.1 in LB, incubated with ^55FeCl3 for 30 min at 37° C., washed and counted in scintillation fluid using the tritium channel of a scintillation system. […] However, the presence of INF 401 in either the absence or presence of antibiotic led to a dramatic increase in iron accumulation (209,215 and 231,621 DPM, respectively).
(§1) Activity of the compound is depicted as the minimal concentration required to kill 99.9% of S. aureus in the presence of 4 μg/ml erythromycin.

S. aureus strain SA1199 = assay: Screening and titration of potentiators with erythromycin (4 μg/ml), viability read by transfer to fresh medium; format: cell-based, Staphylococcus aureus; conditions: for Activity (minimal concentration required to kill 99.9% of S. aureus): in the presence of 4 μg/ml erythromycin; for lowest concentration at which the potentiator is active (titration in the presence of erythromycin): erythromycin 4 μg/ml, S. aureus SA1199; for effect on viability of S. aureus in combination with a bacteriostatic concentration of erythromycin: library screen hit
Procedure: In an exemplary screening assay, in order to identify a candidate acyl hydrazide, oxy amide or 8-hydroxy quinoline composition as an antibacterial agent potentiator, the S. aureus strain SA1199 may be used. The procedure for screening is as follows: logarithmically growing S. aureus SA1199 are inoculated to a final OD600 of 0.002 into 150 μl of LB medium containing a bacteriostatic concentration of an antimicrobial agent for that strain, for example, erythromycin (4 μg/ml) at four times the Minimal Inhibitory
Concentration (MIC). […] In preliminary studies the inventors determined that under these conditions up to 2000 viable cells were transferred after incubation with erythromycin. As confirmed by broth microdilution, at least a 1000-fold reduction in viability was required to see no visible growth after 20 hours. Acyl hydrazide, oxy amide or 8-hydroxy quinoline antibiotic potentiators may be identified as those compounds that increase the bactericidal effect of the erythromycin.
The macrolide erythromycin was chosen in the initial screen for two reasons: first, its mechanism of inhibition of protein synthesis is well characterized and second, as a macrolide, erythromycin is representative of an expanding class of agents which includes the second most prescribed antibiotic, azithromycin.
In preliminary studies the inventors determined that under these conditions up to 2000 viable cells were transferred after incubation with erythromycin. As confirmed by broth microdilution, at least a 1000-fold reduction in viability was required to see no visible growth after 20 h.
Next the activity of the hit compounds was compared by titration of the compounds in the presence of erythromycin at 4 μg/ml as described above.
as §1

S. aureus SA1199 [1] = assay: Checkerboard two-fold broth microdilution, MIC and MBC; format: cell-based, Staphylococcus aureus; conditions: for MBC: antibiotic alone; for MBC^b = MBC in the presence of 5 μg/ml of INF 401: plus 5 μg/ml INF 401, unit not given
Procedure: Checkerboard titration was performed with INF 401 and erythromycin to quantitate the effects of the combination on Staphylococcal growth using two-fold serial broth microdilution. After overnight incubation, cells were transferred to fresh medium, as described above, to determine those combinations that were bactericidal to S. aureus. […] Although not determined according to NCCLS recommended procedures ([…]), the inventors considered this the Minimal Bactericidal Concentration (MBC).
The inventors next evaluated whether INF 401 was bactericidal in combination with other protein synthesis inhibitors which are bacteriostatic to S. aureus. Checkerboard studies were performed with two-fold dilutions of each antibiotic in combination with INF 401 using the assay described above in Example 2. After overnight incubation the MIC of each antibiotic was determined by visualization of bacterial growth. […] The MBC of each antibiotic was determined as described in Example 2 in the absence or presence of INF 401.

S. aureus (SA1199) = assay: Time kill studies (CFU counts); format: cell-based, Staphylococcus aureus
Procedure: FIG. 5A, FIG. 5B and FIG. 5C. […]
The initial inoculum number was determined by plating an appropriate dilution on LB agar plates and determining the number of colony forming units (CFUs). At different time points an aliquot was withdrawn from each tube and cell viability was determined by plating an appropriate dilution and counting CFUs after overnight incubation.

S. aureus SA1199 [2] = assay: Checkerboard two-fold broth microdilution, MIC and MBC; format: cell-based, Staphylococcus aureus; conditions: Table 2, plus 10 μg/ml INF 402, unit not given
S. pneumoniae = assay: Bactericidal activity (MBC) of translational inhibitors with or without INF 401 in S. pneumoniae; format: cell-based, Streptococcus pneumoniae; conditions: antibiotic alone
Source text: It would be desirable that an antibiotic potentiator of the present invention is active not only in S. aureus but also in other bacterial pathogens. The inventors have begun studies to investigate whether INF 401 can also potentiate the activity of translational inhibitors in another Gram positive pathogen, S. pneumoniae.

[3] = test system: S. aureus strain ATTC 29213; assay: Characterization of killing by INF 401 plus chloramphenicol (viability, morphology, protein, DNA, metal dependence); format: cell-based, Staphylococcus aureus; conditions: reversed by exogenous Fe3+
Procedure: Time kill study of the effect of NF 401 in combination with chloramphenicol. Exponentially growing cells (S. aureus strain 29213) were diluted to OD600 0.1 in LB supplemented with 20 μg/ml of chloramphenicol (Cm) in the presence or absence of INF 401 (2 μg/ml) and incubated with shaking at 37° C. At indicated time points cells were harvested, washed with LB and plated on LB agar plates. Number of colony forming units (CFUs) was determined after overnight incubation.
Time kill study of the effect of iron on the bactericidal activity of INF 401. S. aureus strain 29213 was grown overnight in iron-limited Staphylococcal Siderophore Detection (SSD) medium (Heinrichs, 1999) supplemented with 2 μM FeCl3, washed with SSD and diluted 1:100 into the fresh medium containing 0, 2 or 50 μm FeCl3. Exponentially growing cells were diluted to OD600 0.01 in the corresponding medium supplemented when indicated with 20 μg/ml of chloramphenicol (Cm) and 2 μg/ml of INF 401. At 0, 1, 2 and 3.5 hours cells were plated in different dilutions to the LB agar plates and number of colony forming units (CFUs) was counted next day.

[4] = Staphylococcus aureus, SA1199, read-out: MBC^a = MBC in the absence of INF 401, Table 1, S. aureus SA1199, unit inferred
[5] = Staphylococcus aureus, SA1199, read-out: MBC^a = MBC in the absence of INF 401, Table 2, S. aureus SA1199, unit inferred

Compound: CCOc1cccc(/C=N/NC(=O)Cc2ccc(C)cc2)c1O [drawing 37]
^55Fe Accm. (S. aureus SA 29213): 1,200 DPM
Activity (minimal concentration required to kill 99.9% of S. aureus) (S. aureus strain SA1199): >10 µg/mL

MIC (S. aureus SA1199 [1]; Staphylococcus aureus, Table 1, S. aureus SA1199, unit inferred, read-out: MIC): 32 µg/mL
Compound: N[C@@H]1CON=C1O [Cycloserine]
MBC (S. aureus SA1199 [1]; Staphylococcus aureus, Table 1, S. aureus SA1199, unit inferred, read-out: MBC^a = MBC in the absence of INF 401): > 256 µg/mL
MBC^b = MBC in the presence of 5 μg/ml of INF 401 (S. aureus SA1199 [1]; Table 1, S. aureus SA1199): 32

Compound: CN(C)[C@@H]1C(O)=C(C(N)=O)C(=O)[C@@]2(O)C(O)=C3C(=O)c4c(O)cccc4[C@@](C)(O)[C@H]3C[C@@H]12 [Tetracycline]
reduction in cell viability, antibiotic in combination with INF 401 (S. aureus (SA1199); antibiotic 1×MIC + 5 μg/ml INF 401): 3 log10
MBC^b = MBC in the presence of 10 μg/ml of INF 402 (S. aureus SA1199 [2]): 2
bactericidal concentration in the absence of INF 401 as multiple of MIC (S. pneumoniae): 4 ×MIC
MBC (S. aureus SA1199 [1]; [4]): 8 µg/mL
MBC (S. aureus SA1199 [1]; [5]): > 8 µg/mL
MBC^b = MBC in the presence of 5 μg/ml of INF 401 (S. aureus SA1199 [1]; Table 1, S. aureus SA1199): 0.25

Compound: CC[C@H]1OC(=O)[C@H](C)[C@@H](O[C@H]2C[C@@](C)(OC)[C@@H](O)[C@H](C)O2)[C@H](C)[C@@H](O[C@@H]2O[C@H](C)C[C@H](N(C)C)[C@H]2O)[C@](C)(O)C[C@@H](C)C(=O)[C@H](C)[C@@H](O)[C@]1(C)O [Erythromycin]
effect of single agent on growth of S. aureus in time kill study (S. aureus (SA1199); INF 401 5 μg/ml alone, erythromycin 2×MIC alone): bacteriostatic
MBC^b = MBC in the presence of 10 μg/ml of INF 402 (S. aureus SA1199 [2]): 1
bactericidal concentration in the absence of INF 401 as multiple of MIC (S. pneumoniae): 1 ×MIC
bactericidal concentration of antibiotic alone as multiple of MIC (S. aureus SA1199 [1]; S. aureus, absence of INF 401): 16-32 ×MIC
Minimal Bactericidal Concentration (greater than 1000-fold decrease in cell viability), antibiotic alone (S. aureus SA1199 [1]; S. aureus, not by NCCLS procedure): 16 to 32 µg/mL
MIC (S. aureus SA1199 [1]; Staphylococcus aureus, SA1199): 1 µg/mL
MBC (S. aureus SA1199 [1]; [4]): 16 to 32 µg/mL
MBC (S. aureus SA1199 [1]; [5]): > 8 µg/mL
MBC^b = MBC in the presence of 5 μg/ml of INF 401 (S. aureus SA1199 [1]; Table 1, S. aureus SA1199): 1
MIC (S. aureus SA1199 [1]; Table 2, S. aureus SA1199, unit inferred): 1 µg/mL

Compound: Cc1cc(C)c2ccc(NN)nc2c1O [INF 406]
lowest concentration at which the potentiator is active (titration in the presence of erythromycin) (S. aureus strain SA1199): 0.6 µg/mL
effect on viability of S. aureus in combination with a bacteriostatic concentration of erythromycin (S. aureus strain SA1199): reduced the viability

Compound: O=C(N/N=C/c1c(O)ccc2ccccc12)Nc1ccccc1
^55Fe Accm. (S. aureus SA 29213): 14,400 DPM
Activity (minimal concentration required to kill 99.9% of S. aureus) (S. aureus strain SA1199): 0.3 µg/mL

Compound: CCOc1cccc(/C=N/NC(=O)Cc2ccc(C)cc2)c1O [drawing 38]
^55Fe Accm. (S. aureus SA 29213): 17,400 DPM
Activity (minimal concentration required to kill 99.9% of S. aureus) (S. aureus strain SA1199): 1.25 µg/mL

Compound: COc1ccc(C(=O)N(O)c2ccccc2)cc1 [INF 402]
lowest concentration at which the potentiator is active (titration in the presence of erythromycin) (S. aureus strain SA1199): 1.25 to 2.5 µg/mL
effect on viability of S. aureus in combination with a bacteriostatic concentration of erythromycin (S. aureus strain SA1199): reduced the viability

Compound: O=C(O)C(NCCNC(C(=O)O)c1ccccc1O)c1ccccc1O (centres unmarked) [EDDHA]
effect of iron chelator on killing by INF 401 [3]: completely ablate killing

Compound: O=C(Cc1ccccc1)N/N=C/c1c(O)ccc2ccccc12
^55Fe Accm. (S. aureus SA 29213): 36,941 DPM
Activity (minimal concentration required to kill 99.9% of S. aureus) (S. aureus strain SA1199): 0.15 µg/mL
